These are literature values, as cited in US8097267B2, “Moisture resistant container systems for rapidly bioavailable dosage forms” (APR Applied Pharma Research s.a., priority 2006, dated 2012).

For the data set the following is noted: acidic environment.

Regarding “[(2,6-dichloro-anilino)-2-phenyl]-2-acetic acid [diclofenac potassium]”, the precipitation result was “tendency to precipitate in an acidic environment”.
